From PubChem BioAssay (NCI)
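Five compound concentrations were applied to cells in 96-well plates for 48 hours; endpoints were derived by simple linear interpolation of the resulting dose-response curve. GI50 is the concentration that inhibits growth by half. Definition used: TGI = concentration required for complete inhibition of growth.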

Assays:
Experiment in all cases: NCI-60 cell line screen, 48 h
[1] = tested on: 786-0 renal
[2] = tested on: A498 renal
[3] = tested on: A549 NSCLC
[4] = tested on: ACHN renal
[5] = tested on: BT-549 breast
[6] = tested on: CAKI-1 renal
[7] = tested on: CCRF-CEM leukemia
[8] = tested on: COLO 205 colon
[9] = tested on: DU-145 prostate
[10] = tested on: EKVX NSCLC
[11] = tested on: HCC-2998 colon
[12] = tested on: HCT-116 colon
[13] = tested on: HCT-15 colon
[14] = tested on: HL-60(TB) leukemia
[15] = tested on: HOP-62 NSCLC
[16] = tested on: HOP-92 NSCLC
[17] = tested on: HS 578T breast
[18] = tested on: HT29 colon
[19] = tested on: IGROV1 ovarian
[20] = tested on: K-562 leukemia
[21] = tested on: KM12 colon
[22] = tested on: M14 melanoma
[23] = tested on: MALME-3M melanoma
[24] = tested on: MCF7 breast
[25] = tested on: MDA-MB-231 breast
[26] = tested on: MDA-MB-435
[27] = tested on: MOLT-4 leukemia
[28] = tested on: NCI-H226 lung
[29] = tested on: NCI-H23 lung
[30] = tested on: NCI-H460 lung
[31] = tested on: NCI-H522 lung
[32] = tested on: NCI/ADR-RES ovarian
[33] = tested on: OVCAR-4 ovarian
[34] = tested on: OVCAR-5 ovarian
[35] = tested on: OVCAR-8 ovarian
[36] = tested on: PC-3 prostate
[37] = tested on: RPMI-8226 leukemia
[38] = tested on: RXF 393 renal
[39] = tested on: SF-268 CNS
[40] = tested on: SF-295 CNS
[41] = tested on: SF-539 CNS
[42] = tested on: SK-MEL-2 melanoma
[43] = tested on: SK-MEL-28 melanoma
[44] = tested on: SK-MEL-5 melanoma
[45] = tested on: SK-OV-3 ovarian
[46] = tested on: SN12C renal
[47] = tested on: SNB-19 CNS
[48] = tested on: SNB-75 CNS
[49] = tested on: SR leukemia
[50] = tested on: SW-620 colon
[51] = tested on: T-47D breast
[52] = tested on: TK-10 renal
[53] = tested on: U251 CNS
[54] = tested on: UACC-257 melanoma
[55] = tested on: UACC-62 melanoma
[56] = tested on: UO-31 renal

O=C1CC2(CCOCC2)Oc2ncccc21
GI50 [1]: 2.38 µM
TGI [1]: 6.33 µM
GI50 [2]: 2.38 µM
TGI [2]: 9.57 µM
GI50 [3]: 4.94 µM
TGI [3]: 19.1 µM
GI50 [4]: 1.81 µM
TGI [4]: 3.21 µM
GI50 [5]: 1.84 µM
TGI [5]: 3.36 µM
GI50 [6]: 1.6 µM
TGI [6]: 3.04 µM
GI50 [7]: 2.11 µM
TGI [7]: 4.74 µM
GI50 [8]: 1.91 µM
TGI [8]: 4 µM
GI50 [9]: 2.98 µM
TGI [9]: 8.42 µM
GI50 [10]: 1.84 µM
TGI [10]: 3.87 µM
GI50 [11]: 1.78 µM
TGI [11]: 3.4 µM
GI50 [12]: 1.87 µM
TGI [12]: 3.59 µM
GI50 [13]: 1.7 µM
TGI [13]: 3.34 µM
GI50 [14]: 2.23 µM
TGI [14]: 5.2 µM
GI50 [15]: 3.24 µM
TGI [15]: 13.1 µM
GI50 [16]: 1.67 µM
TGI [16]: 3.3 µM
GI50 [17]: 2.54 µM
TGI [17]: 8.26 µM
GI50 [18]: 2.19 µM
TGI [18]: 4.85 µM
GI50 [19]: 1.88 µM
TGI [19]: 3.86 µM
GI50 [20]: 1.99 µM
TGI [20]: > 100 µM
GI50 [21]: 2.76 µM
TGI [21]: 7.65 µM
GI50 [22]: 1.85 µM
TGI [22]: 3.76 µM
GI50 [23]: 1.79 µM
TGI [23]: 3.51 µM
GI50 [24]: 2.8 µM
TGI [24]: 12.8 µM
GI50 [25]: 1.7 µM
TGI [25]: 3.15 µM
GI50 [26]: 2 µM
TGI [26]: 4.3 µM
GI50 [27]: 2.11 µM
TGI [27]: 4.8 µM
GI50 [28]: 2.06 µM
TGI [28]: 4.59 µM
GI50 [29]: 1.89 µM
TGI [29]: 3.86 µM
GI50 [30]: 2.3 µM
TGI [30]: 5.61 µM
GI50 [31]: 2 µM
TGI [31]: 4.15 µM
GI50 [32]: 2.05 µM
TGI [32]: 4.99 µM
GI50 [33]: 2.1 µM
TGI [33]: 4.82 µM
GI50 [34]: 1.7 µM
TGI [34]: 3.18 µM
GI50 [35]: 2.19 µM
TGI [35]: 4.92 µM
GI50 [36]: 2.42 µM
TGI [36]: 6.03 µM
GI50 [37]: 0.545 µM
TGI [37]: 4.7 µM
GI50 [38]: 1.77 µM
TGI [38]: 3.41 µM
GI50 [39]: 2.55 µM
TGI [39]: 7.7 µM
GI50 [40]: 12.5 µM
TGI [40]: 25.4 µM
GI50 [41]: 1.74 µM
TGI [41]: 3.22 µM
GI50 [42]: 2.73 µM
TGI [42]: 7.32 µM
GI50 [43]: 1.81 µM
TGI [43]: 3.36 µM
GI50 [44]: 2.09 µM
TGI [44]: 4.34 µM
GI50 [45]: 15.7 µM
TGI [45]: 29.3 µM
GI50 [46]: 1.84 µM
TGI [46]: 3.44 µM
GI50 [47]: 2.05 µM
TGI [47]: 4.83 µM
GI50 [48]: 2.07 µM
TGI [48]: 12.4 µM
GI50 [49]: 0.974 µM
TGI [49]: 4.69 µM
GI50 [50]: 1.77 µM
TGI [50]: 3.5 µM
GI50 [51]: 4.66 µM
TGI [51]: 26.9 µM
GI50 [52]: 6.68 µM
TGI [52]: 37.1 µM
GI50 [53]: 1.83 µM
TGI [53]: 3.63 µM
GI50 [54]: 2.53 µM
TGI [54]: 7.53 µM
GI50 [55]: 1.7 µM
TGI [55]: 3.22 µM
GI50 [56]: 2.63 µM
TGI [56]: 12.8 µM
